Patent publication US6350740B1, “Transplatinum complexes as cytotoxic and anticancer agents” (Virginia Commonwealth University, priority 2000, dated 2002)
Like-named read-outs stand apart in the source and are kept apart here.

Legend:
[1] = system: Daudi; experiment: Cytotoxicity by cell proliferation, Daudi cells; type: cell-based; settings: read-out: IC50 for indicated cell line Daudi
Protocol: (§1) The cytotoxicity of the novel trans-platinum compounds was assayed through the standard protocols of the NCI Developmental Therapeutics (HIV) and NIAID (Herpes Viruses) Screening Programs.
(§2) http://www.niaid.nih.gov/dmid/apdsame.html. IC50 is cytotoxic dose in cell carriers.
(§3) The cytotoxicity of several nucleobase compounds of the general formula SP-4-2-[PtX(L)(L′)(B)]^+ was assessed and the results are given in Table I. The cell lines employed were human foreskin fibroblast (HFF), Daudi, and CEM-SS, a T-cell line typically used to csrry snd maintain human imnmunodefficiency virus (HIV). The lC50 values for HFF and Dsudi cell lines were determined by cell proliferation as referenced above. The IC50 values for the CEM-SS cell line was determined by XTT colorimetric assays as referenced above.

[2] = system: human foreskin fibroblast (HFF); experiment: Cytotoxicity by cell proliferation, HFF cells; type: cell-based; settings: read-out: IC50 for indicated cell line HFF
Protocol: as §1, §2, §3

[3] = system: CEM-SS, a T-cell line; experiment: Cytotoxicity by XTT colorimetric assay, CEM-SS cells; type: cell-based; settings: read-out: IC50 for indicated cell line CEM-SS
Protocol: as §1, §2, §3

[4] = Water-solubility compared with the parent compound; type: physicochemical; settings: statement in words, no values
[5] = system: L1210 Leukemia; settings: murine L1210 leukemia; J. Med. Chem. 32:2240; cited from earlier work
[6] = system: L1210 Leukemia; settings: for in vivo antitumor activity: murine L1210 leukemia
From the text: b: %T/C is % average survival in days of treated animals/average survival in days of control animals. All tests performed as reported in references in a above. 50×3 refers to dose (mg/kg) and schedule (drug injection at 1,5,9 days after tumor inoculation).

[7] = system: A 2780; settings: A 2780 cells

Compound | IC50 [1] | IC50 [2] | IC50 ([3]; first CEM-SS column) | IC50 ([3]; second CEM-SS column) | other results
CCn1c[n+]([Pt-2]([NH2])([NH3+])[Cl])c2c(=O)[nH]c(N)nc21 (stereo not drawn) [Compound 1, trans-[PtCl(9-ethylguanine)(NH3)2]^+] | 7.9 µM | 18.9 µM |  |  | 
CCn1c[n+]([Pt-2]([NH2])([Cl])[n+]2ccsc2)c2c(=O)[nH]c(N)nc21 (centres unmarked) [Compound 2, SP-4-2-[PtCl(9-ethylguanine)(NH3)(thiazole)]^+] | 18.1 µM | 11.2 µM | 47.3 µM | 24.6 µM | 
CCn1c[n+]([Pt-2]([NH2])([Cl])[n+]2cccc3ccccc32)c2c(=O)[nH]c(N)nc21 (centres unmarked) [Compound 4] | 0.93 µM | 25.9 µM | 47.4 µM | 31.7 µM | 
CCn1c[n+]([Pt-2]([NH2])([Cl])[n+]2ccc3ccccc3c2)c2c(=O)[nH]c(N)nc21 (centres unmarked) [Compound 5, SP-4-2-[PtCl(9-ethylguanine)(NH3)(isoquinoline)]^+] | 4.8 µM | 2.8 µM |  |  | 
CCn1c[n+]([Pt-2]([Cl])([n+]2ccc(C)cc2)[n+]2ccc(C)cc2)c2c(=O)[nH]c(N)nc21 [Compound 6, trans-[PtCl(9-ethylguanine) (4-picoline)2]^+] | 0.92 µM | 21.7 µM | 1.9 µM | 2 µM | water-solubility and bioavailability versus parent trans-[PtCl2(4-pic)2] [4]: significant water-solubility and bioavailability over the parent compound
Cn1ccc(N)[n+]([Pt-2]([NH2])([Cl])[n+]2cccc3ccccc32)c1=O (centres unmarked) [Compound 9, SP-4-2-[PtCl(1-methylcytosine)(NH3)(quinoline)]^+] | 14.1 µM | 38.7 µM | 50.4 µM | 33.2 µM | 
Cn1ccc(N)[n+]([Pt-2]([NH2])([Cl])[n+]2ccc3ccccc3c2)c1=O (centres unmarked) [Compound 10, SP-4-2-[PtCl(1-methylcytosine)(NH3)(isoquinoline)]^+] | 21.6 µM | > 56.4 µM |  |  | 
[Cl][Pt][Cl].c1ccncc1.c1ccncc1 [trans-[PtCl2(pyridine)2], reference compound] |  |  |  |  | in vivo antitumor activity, previously reported [5]: totally inactive; L1210 Leukemia % T/C ([6]; 50 × 2: 50 mg/kg, injected twice only): 106 (50 × 2) %; in vivo antitumor activity [6]: no activity; A 2780 IC50 [7]: 0.2 µg/mL
SP-4-2-[PtCl(1-methylcytosine)(NH3)(thiazole)] [Compound 8] |  | > 52 µM |  |  | 
SP-4-2-[PtCl(9-ethylguanine) (NH3)(benzothiazole)]^+ [Compound 3] | 9.8 µM | 11.2 µM |  |  | 
trans-[PtCl(1-methylcytosine)(NH3)2]^+ [Compound 7] | 15 µM | > 45.2 µM |  |  | 
trans-[PtCl(Me2SO)(pyridine)2]^+ |  |  |  |  | L1210 Leukemia % T/C ([6]; 50 × 3: 50 mg/kg, injection at 1,5,9 days after tumor inoculation, T/C >150% indicative of activity): 155 (50 × 3) %; in vivo antitumor activity [6]: some antitumor activity; A 2780 IC50 [7]: 0.3 µg/mL
